Reference: a melting point compilation (Tetko et al.; mined from patent text by program, amines drawn as free bases though some values may be those of a salt)

SMILES	melting point [°C]
COC(=O)C1=C(C)NC(C)=C(C(=O)OCCN2CCN(C(c3ccccc3)c3ccccc3)CC2)C1c1cccc(C(F)(F)F)c1 (centres undefined)	70 to 72
Cn1ncnc1COc1nc2c(cc1-c1ccoc1)nnn2-c1c(F)cccc1F	166 to 169
O=[N+]([O-])c1cccc(/C=C/c2csc(C3CCC3)n2)c1	112 to 115
CCOC(=O)c1cn(C)c2cnc3cc(N4CCCC(C)(C)C4)c(F)cc3c2c1=O	198 to 200
COc1cc(Cc2cnc(NC(C)=N)nc2N)cc(OC)c1OC	207
CCCC(C)S(=O)(=O)Nc1ccc(C(=O)CN2CCN(c3ccncc3)CC2)cc1 (centres undefined)	101 to 103
Cn1nc(-c2ccccc2)nc1-c1ccccc1CO	122
C[C@H](OC(=O)CCC(=O)O[C@@H](C)C(=O)O)C(=O)O	59 to 61
CCOC(=O)Cn1c(=O)sc2cc(N)c(Cl)cc21	154 to 160
CCOc1ccc(C=C2N=C(C)OC2=O)cc1OCC	117 to 119
CC(=O)NC[C@H]1CN(c2ccc(-c3ncon3)c(F)c2)C(=O)O1	197 to 199
CCCc1c(OCC(=O)OC)ccc2c1OC(CCCCCCO)CC2=O (centres undefined)	93 to 94.5
CC(=O)SC(CC(=O)c1ccccc1C)C(=O)O (centres undefined)	106 to 108
CN(CCCN1C(=O)c2cccc3cc4ccccc4c(c23)C1=O)CCCN1C(=O)c2cccc3cc4ccccc4c(c23)C1=O	194
CCCCc1nc2cc[nH]c(=O)c2n1Cc1ccc([N+](=O)[O-])cc1	193 to 194
CCOC(=O)c1ccc(-c2cnc3c(c2)N(Cc2ccccc2)C(=O)CN3)cc1	178
CCCCCCCCCCn1c(C)cc(C)c(C(=O)O)c1=O	67.5 to 72
O=C(Cn1c(=O)n(S(=O)(=O)c2ccc(Cl)cc2)c(=O)c2ccc(Cl)cc21)Nc1ccccc1	217 to 218
C=CCOc1ccc(C[C@H](NC(C)=O)C(=O)OCC)cc1	69 to 70
COc1ccc(Cc2nnc(N[C@H]3CC[C@H](C(C)C)CC3)c3ccccc23)cn1	124 to 125
CCCC(=O)NCCc1c[nH]c2ccc(OCCN3CCCCC3)cc12	113 to 114
O=P(O)(O)C1(P(=O)(O)O)CCCN1	80
Cn1c(CCNC(=O)C(F)(F)F)cc2cccc(F)c21	108 to 110
Cc1sc(-n2cccc2)c(C(=O)N2CCCC2)c1C	100
CC1=C(C(=O)OC(C)C)C(c2ccc(F)cc2Cl)N=C(c2c(F)cccc2F)N1 (centres undefined)	155 to 158

SMILES	melting point [°C]
N#CC(c1ccnc(NCCc2c[nH]cn2)n1)c1nc2ccccc2s1 (centres undefined)	257 to 258
CCOC(=O)C=Cc1cc([N+](=O)[O-])ccc1C	44
CN(c1cccc2cc(-c3nccs3)[nH]c12)S(=O)(=O)c1ccsc1C(N)=O	269
Cc1c(Cl)cccc1S(=O)(=O)Nc1ccc2sccc2c1	108 to 109
O=CNc1csc(Br)n1	167
CCNC(=O)c1c(Br)csc1[Si](C)(C)C	93 to 96
CCOC(=O)C(=CNc1cc(OCc2ccccc2)c(OCc2ccccc2)cn1)C(=O)OCC	117
O=C(COc1ccc2ccccc2c1)NCc1ccc(C(=O)O)cc1	188 to 189
O=C1Nc2cc(Cl)ccc2C(=O)C1c1ccccn1 (centres undefined)	> 330
Cc1ccc(C(=O)NCCO)cc1-n1c(C)cc(OCc2ccccc2CNC(=O)Nc2cc(C(C)(C)C)nn2-c2ccc(Cl)c(O)c2)c(Cl)c1=O	196 to 197
CSCC(=O)[C@H](Cc1ccccc1)NC(=O)[C@H](CC(C)C)NC(=O)CCc1ccccc1	104 to 107
COc1ccc(S(=O)(=O)Nc2ccccc2NC(=O)c2cnccc2C)cc1	199 to 200
CCC(=O)N1N=C(c2ccc(N)cc2)c2cc(Cl)ccc2CC1C (centres undefined)	118 to 120
COc1ccc(CCC(C)=O)cc1S(N)(=O)=O	176 to 179
Cc1cc(Oc2cccc(C(F)(F)F)c2)nn1C(=O)Nc1ccccc1	53 to 54
CC(C)OCCNS(=O)(=O)NC(=O)OCCCc1ccc(OCc2ccco2)cc1Oc1ncc(C(F)(F)F)cc1Cl	118 to 120
CCCC12COC(c3ccc(I)cc3)(OC1)SC2	128 to 132
CCc1cccc(-c2nc3ccccc3[nH]2)n1	161 to 162
Cc1ccccc1C1=NC(C)(C)OC1c1ccc(N(C)C)cc1 (centres undefined)	89 to 90
CN1CCCc2ccc(C(=O)CCC(=O)N3CCC(c4ccc(Cl)cc4)CC3)cc2C1	133 to 134
Cc1ccc(-c2cccc(/C=C/C(=O)Nc3ccc(CN4CCCC(CO)C4)cc3)c2)cc1 (centres undefined)	153 to 154
CCCC(=O)c1c[nH]c2c(OC)nccc2c1=O	206 to 207
Cn1c(=O)[nH]c2cc(F)ccc21	207
COc1cccc(Cc2cc3ccc4ccccc4n3n2)c1	82 to 84
N#CC1CC(c2c(F)cccc2F)=NC1c1ccc(-c2ccc(OC(F)(F)F)cc2)cc1 (centres undefined)	145

SMILES	melting point [°C]
CCC(=O)Oc1ccc2c(c1)CCC1C2CCC2(C)C(=O)CCC12 (centres undefined)	134 to 136
Cc1cccc(-c2nc(NC(=O)Cc3ccccc3)sc2-c2ccnc(NC(=O)Cc3ccccc3)n2)c1	110 to 113
O=Cc1csc(NC2CC2)n1	124 to 127
COC(=O)CCc1ccc(-n2c(C)nn(-c3ccc(C#N)cc3)c2=O)cc1	163 to 164
COc1ccccc1N1CCN(CCNC(=O)CCN2CC=C(c3c[nH]c4cc(F)ccc34)CC2)CC1	175 to 177
CCOC=CC(=O)Nc1ccc(-n2cnc(C)c2)cc1	214 to 216
Cc1csc(-c2sc(Br)cc2-c2ccc(F)cc2)c1	113 to 116
CNc1nc(N)nc(NC2CC2)n1	159 to 162
COC(=O)c1ccc(-c2nc(-c3ccc(Cl)cc3)no2)c([N+](=O)[O-])c1	189 to 190
Cn1cncc1COCC(O)c1ccccc1 (centres undefined)	102 to 105
CCOC(=O)c1cc2c3n(ccc-2n1)C(Br)C(C)=N3 (centres undefined)	224 to 226
CC(C)(C)C1=C(C#N)C(c2ccccc2Cl)c2c[nH]nc2N1 (centres undefined)	198
COc1cc2c(cc1OC)[C@@H](c1ccc([N+](=O)[O-])cc1)NN(C1=NC(=O)CS1)[C@@H](C)C2	238 to 239
CN(C)CCc1cn(C(=O)c2ccccc2)c2ccc(O)cc12	154 to 156
CCc1nc(/C=C/c2cn(-c3ccccc3)nc2OCc2ccc(OCc3nc(-c4cccc(C(=O)O)c4)oc3C)c(OC)c2)cs1	190 to 191
COC(=O)N(C)C(=O)N(SC(Cl)Cl)c1ccccc1	77 to 78
CCOC(=O)c1cnc(-c2cc3cccc([N+](=O)[O-])c3n2COC)s1	92 to 93
CCNC(=O)c1cnn(C)c1C(=O)Nc1ccn2nc(-c3ccccc3)nc2c1	253 to 255
COc1cccc(OC)c1C(=O)Nc1ccc(OCCN2CCCCC2)cc1	114 to 118
CCCN(CCC)C(=O)Cn1c(-c2ccc(Cl)cc2)nc2ccc(Cl)nc21	170 to 174
[N-]=[N+]=NC(=O)c1csc(Cl)n1	> 250
Cc1ccc(C)n1CCNC(=O)Nc1ccc(Cl)cc1	175 to 177
CCOC(=O)C(=O)CC(=O)c1cn(Cc2ccc(O)cc2)c2ccccc2c1=O	179 to 181
O=S1(=O)NCN(C2CC2)c2cc(Br)c(C(F)(F)F)cc21	186 to 189
COc1ccc2[nH]c3c(C)cnc(Cl)c3c2c1	243 to 245

SMILES	melting point [°C]
CCc1c(Cc2[nH]c(Cc3[nH]c(C(=O)OCc4ccccc4)c(C)c3CC)c(CC)c2CC)[nH]c(C(=O)OCc2ccccc2)c1C	211
CC(=O)Nc1c(C#N)cnn1-c1ccc(C)cc1Cl	146 to 147
Cn1c(SCC(=O)NCCC[N+](C)([O-])Cc2ccc(Cl)c(Cl)c2)nc2ccccc21 (centres undefined)	106 to 110
CN(C)c1ccc(C2N(c3ccccc3)CCN2c2ccccc2)c(O)c1	161 to 165
CN1CCN(c2ccc3c(=O)n4c(nc3c2)C(=O)c2cc(F)ccc2-4)CC1	242 to 244
N#CC1CCc2cc(C(=O)O)ccc2C1 (centres undefined)	231 to 236
COC(=O)Cn1c(C(=O)Nc2nc(-c3cc(OC)c(Cl)cc3OC)c(CC3CCCCC3)s2)cc2cc(C)cc(C)c21	143 to 145
O=C(NC1=NCCC1)Nc1ccc(Br)cc1	221 to 224
Cc1cc(OCC(O)CCCl)ccc1Cl (centres undefined)	87 to 89
CCCNc1cc(NS(=O)(=O)c2ccc(N)cc2)nc(NCCC)n1	211 to 215
Cc1nc(N2C[C@@H](C)N(Cc3ccc(F)cc3)C2=O)sc1C(=O)NCc1cc(F)cc(F)c1	159 to 160
COc1ccc(NC2=NN(c3ccccc3)CC2)cc1	153 to 154
O=C(Nc1cccc(S(=O)(=O)NCC(F)(F)F)c1)c1cnn2c(C(F)(F)F)cc(-c3ccc(C(F)(F)F)cc3)nc12	259
CCC(=O)Nc1onc2c1c(=O)n(C)c(=O)n2C	150 to 152
CCN(CC)CCNC(=O)N1CCCC(S(=O)(=O)c2ccc(Cl)cc2)C1 (centres undefined)	141 to 142
Cc1cc(C)cc(C(O)(CCc2cncn2Cc2ccccc2)c2cc(C)cc(C)c2)c1	120 to 124
CCCCc1noc(-c2ccccc2)c1-c1ccc(S(N)(=O)=O)cc1	150
O=C(NNC(=O)c1occ(-c2ccccc2)c1-c1ccccc1)c1ccc(O)c(F)c1	243 to 245
CC(C)(C)C(O)c1ccc(C2(c3ccccc3)OCCO2)cc1 (centres undefined)	90 to 93
CC(C#CCOc1ccccc1)N(O)C(N)=O (centres undefined)	75 to 77
Cc1c(C)c2c(c(C)c1N)CC(C)(CN1CCC(CCCc3ccccc3)CC1)O2 (centres undefined)	79 to 80
CN(C)c1nn(C(=O)NC(C)(C)CF)c(=O)n1NCc1cccc(Cl)c1	158
CCc1ccc(C2CCC(c3ccc(Oc4ccc([N+](=O)[O-])cc4)cc3)(c3ccc(Oc4ccc([N+](=O)[O-])cc4)cc3)CC2)cc1	204 to 205
Cc1cnc2c(Cl)nc3cc4ccccc4cc3n12	221 to 223
